Laboratory results from patent US12583858B2 (Genentech, Inc., priority 2015, dated 2026).

target: T1, TDO2 (Homo sapiens, UniProt P48775); test: TDO2 cell assay (NFK GreenScreen, SW48 cells); type: cell-based; settings: SW48 cells (high TDO expressing), 200 uM tryptophan, 24 hours; Table 3; read-out: TDO2 Cell Fluor EC50
T1 construct: decreased levels of NFK in SW48 cells (high TDO expressing cells)
T1 sequence (P48775 whole entry): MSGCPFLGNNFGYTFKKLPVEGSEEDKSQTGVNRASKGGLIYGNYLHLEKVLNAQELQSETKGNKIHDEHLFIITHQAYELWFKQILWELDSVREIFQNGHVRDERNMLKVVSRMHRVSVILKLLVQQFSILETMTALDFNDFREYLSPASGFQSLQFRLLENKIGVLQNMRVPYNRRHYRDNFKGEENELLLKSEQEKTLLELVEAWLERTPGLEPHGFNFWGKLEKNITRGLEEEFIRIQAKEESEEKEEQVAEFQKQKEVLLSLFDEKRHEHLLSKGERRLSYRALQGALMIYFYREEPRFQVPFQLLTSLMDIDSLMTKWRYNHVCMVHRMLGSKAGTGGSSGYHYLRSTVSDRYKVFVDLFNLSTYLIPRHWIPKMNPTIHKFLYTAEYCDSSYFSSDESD

Row | EC50 [µM] | SMILES
1 | > 25 | OC1COCCC1C1c2c(Cl)cccc2-c2cncn21 (single isomer, unassigned) [Example 69-1b]
2 | > 25 | OC1COCCC1C1c2c(Cl)cccc2-c2cncn21 (single isomer, unassigned) [Example 69-1c]
3 | 4.6 | OC1COCCC1C1c2c(Cl)cccc2-c2cncn21 (single isomer, unassigned) [Example 69-1d]
4 | > 25 | OC1CCOCC1C1c2c(Cl)cccc2-c2cncn21 (single isomer, unassigned) [Example 69a]
5 | > 25 | OC1CCOCC1C1c2c(Cl)cccc2-c2cncn21 (single isomer, unassigned) [Example 69b]
6 | 11 | OC1CCOCC1C1c2c(Cl)cccc2-c2cncn21 (single isomer, unassigned) [Example 69c]
7 | > 25 | OC1CCOCC1C1c2c(Cl)cccc2-c2cncn21 (single isomer, unassigned) [Example 69d]
8 | > 25 | O=S(=O)(C1CC1)N1CC[C@@H](O)[C@H]([C@H]2c3ccccc3-c3cncn32)C1 (single isomer, unassigned) [Example 70a]
9 | 1.1 | O=S(=O)(C1CC1)N1CC[C@@H](O)[C@H]([C@H]2c3ccccc3-c3cncn32)C1 (single isomer, unassigned) [Example 70b]
10 | > 25 | O=S(=O)(C1CC1)N1CC[C@@H](O)[C@H]([C@@H]2c3ccccc3-c3cncn32)C1 (single isomer, unassigned) [Example 70c]
11 | > 25 | O=S(=O)(C1CC1)N1CC[C@@H](O)[C@H]([C@@H]2c3ccccc3-c3cncn32)C1 (single isomer, unassigned) [Example 70d]
12 | 17 | OC1c2cnccc2CC1C1c2ccccc2-c2cncn21 (single isomer, unassigned) [Example 71a]
13 | > 25 | OC1c2cnccc2CC1C1c2ccccc2-c2cncn21 (single isomer, unassigned) [Example 71aa]
14 | 0.63 | OC1c2cnccc2CC1C1c2ccccc2-c2cncn21 (single isomer, unassigned) [Example 71b]
15 | 0.49 | OC1c2cnccc2CC1C1c2ccccc2-c2cncn21 (single isomer, unassigned) [Example 71bb]
16 | > 25 | OC1c2cnccc2CC1C1c2ccccc2-c2cncn21 (single isomer, unassigned) [Example 71c]
17 | 1.6 | OC1c2cnccc2CC1C1c2ccccc2-c2cncn21 (single isomer, unassigned) [Example 71d]
18 | 11 | OC1c2cnccc2CC1C1c2ccccc2-c2cncn21 (single isomer, unassigned) [Example 71e]
19 | > 25 | OC1c2cnccc2CC1C1c2ccccc2-c2cncn21 (single isomer, unassigned) [Example 71f]
20 | 6.6 | OC1CC2(CC2)C1C1c2ccccc2-c2cncn21 (single isomer, unassigned) [Example 72a]
21 | 0.65 | OC1CC2(CC2)C1C1c2ccccc2-c2cncn21 (single isomer, unassigned) [Example 72b]
22 | 10 | OC1CC2(CC2)C1C1c2ccccc2-c2cncn21 (single isomer, unassigned) [Example 72c]
23 | 9 | OC1CC2(CC2)C1C1c2ccccc2-c2cncn21 (single isomer, unassigned) [Example 72d]
24 | 0.052 | OC1CC2(CC2)C1C1c2ccccc2-c2cncn21 (single isomer, unassigned) [Example 72e]
25 | 11 | OC1CC2(CC2)C1C1c2ccccc2-c2cncn21 (single isomer, unassigned) [Example 72f]
26 | 11 | OC1CC2(CC2)C1C1c2ccccc2-c2cncn21 (single isomer, unassigned) [Example 72g]
27 | 18 | OC1CC2(CC2)C1C1c2ccccc2-c2cncn21 (single isomer, unassigned) [Example 72h]
28 | 6.4 | OC1CCOCC1C1c2c(F)cccc2-c2cncn21 (single isomer, unassigned) [Example 73a]
29 | 2.2 | OC1CCOCC1C1c2c(F)cccc2-c2cncn21 (single isomer, unassigned) [Example 73b]
